Patent US20200138081A1, “Biologically active food additive for preventing and treating acute respiratory diseases and flu” (Parapharm LLC, priority 2013, published 2020)

How the values were obtained:
Format in all cases: in vivo, human
IgA = assay: Example 5 comparative effect of ingredients and additive, serum IgA
From the text: (§1) The object of the study lied in analyzing comparative effect of main ingredients of the additive (the ADBH and vitamin D, separately) on the immune system of the body by variations of the main classes of immunoglobulins IgG, IgA, and IgM in blood serum. As stated previously, IgG is the main serum immunoglobuline of a healthy human amounting to 70-75% of the whole immunoglobulin fraction. It is especially active in the immune response. The serous IgA makes up to 15-20% of the whole immunoglobulin fraction. […] The IgM immunoglobulins are capable of neutralizing foreign particles, effectively activating complement, triggering defensive response mechanisms in the body.
(§2) 29 participants, 37 to 60 years old, residing in the city of Penza and suffering from frequent catarrhal diseases were examined, and low levels of immunoglobulin reference values were uncovered. In view of the task set, immunopotentiation was administered to them. Depending on the method of immune correction, the participants were divided into three groups:1st group—nine persons took a tablet of the ADBH (150 mg) twice a day for 30 days, 2nd group—8 persons took a tablet of vitamin D3 (500 IE) twice a day for 30 days, and 3rd group—12 persons took a tablet of the proposed additive (150 mg of the ADBH and 500 IE of vitamin D3) by one tablet twice a day for 30 days.

IgM [1] = assay: Example 5 comparative effect of ingredients and additive, serum IgM
From the text: as §1, §2

IgG [2] = assay: Example 5 comparative effect of ingredients and additive, serum IgG
From the text: as §1, §2

ARD = assay: Example 5 catamnesis, ARD during six months after the study; conditions: during six months after the study was over
Protocol: as §2
In other words, an unexpected result of the combined use of the ingredients dramatically differs from that where the ingredients are employed individually. […] The result can probably be explained by the presence of an enhancer of one ingredient of the proposed additive in the other which is on full display only when the both ingredients are used jointly.

IgM [3] = assay: Example 6 ADBH, 25(OH)D and combination, IgM (immunoturbidimetric)
From the text: (§3) The object was to study the effect of active metabolites of vitamin D, as exemplified by 25 (OH)D, on the immune status in participants, judging by the level of immunoglobulines IgG, IgA, and IgM. 32 participants in the age range between 38 and 62 (23 females and 9 males) residing in Penza had no acute diseases and were apparently healthy. The immune status was examined before the therapy started and 30 days after that. […] Immunoglobulines were detected by an immunoturbidimetric method, using an assay kit of DiaSys Diagnostic Systems (Germany).
(§4) Table 3 presents mean values (M±m) of specific antibody response for main immunoglobulin classes IgG, IgA, and IgM.

IgG [4] = assay: Example 6 ADBH, 25(OH)D and combination, IgG (immunoturbidimetric)
From the text: as §3, §4

[5] = After, one tablet twice a day for 30 days (ADBH 150 mg; vitamin D3 500 IE; additive 150 mg ADBH + 500 IE D3)
[6] = Before, participants 37 to 60 years with frequent catarrhal diseases
[7] = After one-month treatment, twice a day (ADBH 150 mg, 25(OH)D 50 IE; or both in one tablet)
[8] = Before, apparently healthy participants 38 to 62 years

SMILES | IgA, M ± m (IgA; [5]) | IgA, M ± m (IgA; [6]) | IgM, M ± m (IgM [1]; [5]) | IgM, M ± m (IgM [1]; [6]) | IgG, M ± m (IgG [2]; [5]) | IgG, M ± m (IgG [2]; [6]) | falling ill with ARD in catamnesis (ARD) | IgM, M ± m (IgM [3]; [7]) | IgM, M ± m (IgM [3]; [8]) | IgG, M ± m (IgG [4]; [7]) | IgG, M ± m (IgG [4]; [8])
C=C1CC[C@H](O)C/C1=C/C=C1\CCC[C@]2(C)[C@@H]([C@H](C)CCCC(C)C)CC[C@@H]12 [vitamin D3] | 1.93 | 1.81 | 1.82 | 1.91 | 12.27 | 12.41 | had those diseased | – | – | – | –
C=C1CC[C@H](O)C/C1=C/C=C1\CCC[C@]2(C)[C@@H]([C@H](C)CCCC(C)(C)O)CC[C@@H]12 [25 (OH)D] | – | – | – | – | – | – | – | 1.82 | 1.91 | 12.39 | 12.21
